Results as given in ChEMBL document CHEMBL5143555, “Potentiating the intracellular killing of Staphylococcus aureus by dihydroquinazoline analogues as NorA efflux pump inhibitor” (Bioorg Med Chem, 2022).
Values after ≈ are worked out from the molar mass of the structure shown. Active and inactive are the calls of the source. The rule behind the calls is not given here.

Tests used:
[1] = target: T1, Quinolone resistance protein NorA (Staphylococcus aureus) (UniProt P0A0J7); test: Inhibition of NorA in Staphylococcus aureus 1199B assessed as accumulation of norfloxacin at 3.9 ug/ml by measuring fluorescence intensity measured at 5 mins interval for 40 mins by fluorescence spectrophotometry; details: dose 3.9 µg/ml
T1 sequence (whole entry): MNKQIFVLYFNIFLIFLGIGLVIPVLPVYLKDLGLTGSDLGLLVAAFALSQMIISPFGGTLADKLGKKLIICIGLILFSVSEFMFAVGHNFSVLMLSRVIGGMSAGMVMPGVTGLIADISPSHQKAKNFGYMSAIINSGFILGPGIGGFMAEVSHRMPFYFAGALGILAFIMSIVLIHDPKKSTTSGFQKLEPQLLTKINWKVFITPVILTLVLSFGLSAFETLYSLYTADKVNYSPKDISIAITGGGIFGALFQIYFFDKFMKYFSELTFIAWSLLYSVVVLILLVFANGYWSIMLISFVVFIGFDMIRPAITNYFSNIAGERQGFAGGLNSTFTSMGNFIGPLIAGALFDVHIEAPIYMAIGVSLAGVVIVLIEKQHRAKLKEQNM

Staphylococcus aureus [2] = test: Antibacterial activity against Staphylococcus aureus 1199B measured after 24 hrs by Muller Hinton broth based MTT assay; format: functional
Staphylococcus aureus [3] = test: Antibacterial activity against Staphylococcus aureus 1199 measured after 24 hrs by Muller Hinton broth based MTT assay; format: functional
Staphylococcus aureus [4] = test: Antibacterial activity against Staphylococcus aureus K1758 measured after 24 hrs by Muller Hinton broth based MTT assay; format: functional
[5] = target: T1, Quinolone resistance protein NorA (Staphylococcus aureus); test: Inhibition of NorA in Staphylococcus aureus 1199B assessed as potentiation of norfloxacin-induced antibacterial activity by measuring Norfloxacin MIC at sub MIC
[6] = target: T1, Quinolone resistance protein NorA (Staphylococcus aureus); test: Inhibition of NorA in Staphylococcus aureus 1199B assessed as potentiation of norfloxacin-induced antibacterial activity by measuring Norfloxacin MIC at sub MIC relative to norfloxacin MIC alone
[7] = target: T1, Quinolone resistance protein NorA (Staphylococcus aureus); test: Inhibition of NorA in Staphylococcus aureus 1199B assessed as potentiation of norfloxacin-induced antibacterial activity by measuring fractional inhibitory concentration
[8] = target: T1, Quinolone resistance protein NorA (Staphylococcus aureus); test: Inhibition of NorA in Staphylococcus aureus 1199B assessed as potentiation of ethidium bromide-induced antibacterial activity by measuring ethidium bromide MIC at sub MIC
[9] = target: T1, Quinolone resistance protein NorA (Staphylococcus aureus); test: Inhibition of NorA in Staphylococcus aureus 1199B assessed as potentiation of ethidium bromide-induced antibacterial activity by measuring ethidium bromide MIC at sub MIC relative to ethidium bromide MIC alone
[10] = target: T1, Quinolone resistance protein NorA (Staphylococcus aureus); test: Inhibition of NorA in Staphylococcus aureus 1199B assessed as potentiation of ethidium bromide-induced antibacterial activity by measuring fractional inhibitory concentration
[11] = target: T1, Quinolone resistance protein NorA (Staphylococcus aureus); test: Inhibition of NorA in Staphylococcus aureus 1199B assessed as potentiation of 3.1 ug/mL norfloxacin-induced bactericidal activity by measuring log reduction in bacterial count at 3.9 ug/mL measured after 24 hrs by time-kill kinetics assay; details: dose 3.9 µg/ml
[12] = target: T1, Quinolone resistance protein NorA (Staphylococcus aureus); test: Inhibition of NorA in Staphylococcus aureus 1199B assessed as potentiation of ethidium bromide-induced bactericidal activity at 62.5 ug/ml measured after 24 hrs by time-kill kinetics assay; details: dose 62.5 µg/ml
[13] = Cytotoxicity against kidney epithelial cells (unknown origin) assessed as cell viability at 50 ug/mL measured after 24 hrs by alamar blue assay relative to control; format: toxicity, cell-based, Fetal kidney cell; details: at 50 µg/mL, read-out: Activity
[14] = target: T1, Quinolone resistance protein NorA (Staphylococcus aureus); test: Inhibition of NorA in Staphylococcus aureus 1199B assessed as accumulation of ethidium bromide at 3.9 ug/ml by measuring fluorescence intensity measured at 5 mins interval for 40 mins by fluorescence spectrophotometry; details: dose 3.9 µg/ml
[15] = target: T1, Quinolone resistance protein NorA (Staphylococcus aureus); test: Inhibition of NorA in Staphylococcus aureus 1199B assessed as potentiation of 3.1 ug/mL norfloxacin-induced bactericidal activity by measuring log reduction in bacterial count at 7.8 ug/mL measured after 8 hrs by time-kill kinetics assay; details: dose 7.8 µg/ml
[16] = target: T1, Quinolone resistance protein NorA (Staphylococcus aureus); test: Inhibition of NorA in Staphylococcus aureus 1199B assessed as potentiation of ethidium bromide-induced bactericidal activity at 62.5 ug/ml measured within 8 hrs by time-kill kinetics assay; details: dose 62.5 µg/ml
[17] = target: T1, Quinolone resistance protein NorA (Staphylococcus aureus); test: Inhibition of NorA in Staphylococcus aureus 1199B assessed as potentiation of norfloxacin-induced morphological changes by measuring appearance of undeveloped cells sticking together at sub MIC by field emission scanning electron microscopy
Staphylococcus aureus [18] = test: Down regulation of NorA gene expression in Staphylococcus aureus 1199B at 3.9 ug/ml measured after 2 hrs by qRT-PCR analysis; format: functional; details: dose 3.9 µg/ml
Staphylococcus aureus [19] = test: Down regulation of NorA gene expression in Staphylococcus aureus 1199B at 3.1 ug/ml measured after 2 hrs by qRT-PCR analysis relative to control; format: functional; details: dose 3.1 µg/ml
Staphylococcus aureus [20] = test: Down regulation of NorA gene expression in Staphylococcus aureus 1199B at 3.1 ug/ml measured after 2 hrs in presence of norfloxacin by qRT-PCR analysis relative to norfloxacin; format: functional; details: dose 3.1 µg/ml
[21] = target: T1, Quinolone resistance protein NorA (Staphylococcus aureus); test: Inhibition of NorA in Staphylococcus aureus 1199B infected human THP-1 cells assessed as potentiation of norfloxacin-induced bactericidal activity by measuring reduction in bacterial count at modulatory concentration measured after 24 hrs; format: cell-based
[22] = target: T1, Quinolone resistance protein NorA (Staphylococcus aureus); test: Inhibition of NorA in Staphylococcus aureus 1199B infected human THP-1 cells assessed as potentiation of norfloxacin-induced bactericidal activity by measuring reduction in bacterial count at modulatory concentration measured after 24 hrs relative to control; format: cell-based
[23] = target: T1, Quinolone resistance protein NorA (Staphylococcus aureus); test: Inhibition of NorA in Staphylococcus aureus 1199B infected human THP-1 cells assessed as potentiation of norfloxacin-induced bactericidal activity by measuring reduction in intracellular invasion at modulatory concentration measured after 24 hrs; format: cell-based
[24] = target: T1, Quinolone resistance protein NorA (Staphylococcus aureus); test: Inhibition of NorA in Staphylococcus aureus 1199B infected human THP-1 cells assessed as potentiation of norfloxacin-induced bactericidal activity by measuring reduction in intracellular proliferation at modulatory concentration measured after 24 hrs; format: cell-based
[25] = target: T1, Quinolone resistance protein NorA (Staphylococcus aureus); test: Inhibition of NorA in Staphylococcus aureus 1199B infected human THP-1 cells assessed as potentiation of 6.2 ug/ml norfloxacin-induced bactericidal activity by measuring log reduction in bacterial count at 15.6 ug/ml measured after 24 hrs relative to control; format: cell-based; details: dose 15.6 µg/ml
[26] = target: T1, Quinolone resistance protein NorA (Staphylococcus aureus); test: Inhibition of NorA in Staphylococcus aureus 1199B infected human THP-1 cells assessed as potentiation of norfloxacin-induced bactericidal activity by measuring log reduction in bacterial count measured after 24 hrs relative to vancomycin; format: cell-based
[27] = target: T1, Quinolone resistance protein NorA (Staphylococcus aureus); test: Inhibition of NorA in Staphylococcus aureus 1199B assessed as potentiation of 3.1 ug/mL norfloxacin-induced bactericidal activity by measuring log reduction in bacterial count at 7.8 ug/mL measured after 24 hrs by time-kill kinetics assay; details: dose 7.8 µg/ml
[28] = target: T1, Quinolone resistance protein NorA (Staphylococcus aureus); test: Inhibition of NorA in Staphylococcus aureus 1199B assessed as potentiation of 3.1 ug/mL norfloxacin-induced bactericidal activity by measuring log reduction in bacterial count at 7.8 ug/mL measured after 12 hrs by time-kill kinetics assay; details: dose 7.8 µg/ml
[29] = target: T1, Quinolone resistance protein NorA (Staphylococcus aureus); test: Inhibition of NorA in Staphylococcus aureus 1199B assessed as potentiation of ethidium bromide-induced bactericidal activity at 7.8 ug/ml measured within 8 hrs by time-kill kinetics assay; details: dose 7.8 µg/ml
[30] = target: T1, Quinolone resistance protein NorA (Staphylococcus aureus); test: Inhibition of NorA in Staphylococcus aureus 1199B assessed as accumulation of norfloxacin at 50 ug/ml by measuring fluorescence intensity measured at 5 mins interval for 40 mins by fluorescence spectrophotometry; details: dose 50.0 µg/ml
[31] = target: T1, Quinolone resistance protein NorA (Staphylococcus aureus); test: Inhibition of NorA in Staphylococcus aureus 1199B assessed as accumulation of ethidium bromide at 50 ug/ml by measuring fluorescence intensity measured at 5 mins interval for 40 mins by fluorescence spectrophotometry; details: dose 50.0 µg/ml
[32] = target: T1, Quinolone resistance protein NorA (Staphylococcus aureus); test: Inhibition of NorA in Staphylococcus aureus 1199B assessed as potentiation of ethidium bromide-induced bactericidal activity at 7.8 ug/ml measured after 24 hrs by time-kill kinetics assay; details: dose 7.8 µg/ml
[33] = target: T1, Quinolone resistance protein NorA (Staphylococcus aureus); test: Inhibition of NorA in Staphylococcus aureus 1199B assessed as accumulation of norfloxacin at 3.9 ug/ml measured at 5 mins interval for 40 mins by fluorescence spectrophotometry; details: dose 3.9 µg/ml
[34] = target: T1, Quinolone resistance protein NorA (Staphylococcus aureus); test: Inhibition of NorA in Staphylococcus aureus 1199B assessed as potentiation of ethidium bromide-induced bactericidal activity at 15.6 ug/ml measured within 8 hrs by time-kill kinetics assay; details: dose 15.6 µg/ml
[35] = target: T1, Quinolone resistance protein NorA (Staphylococcus aureus); test: Inhibition of NorA in Staphylococcus aureus 1199B assessed as potentiation of norfloxacin-induced morphological changes by measuring appearance of rough and dented cell at sub MIC by field emission scanning electron microscopy

Compound	Flu intensity [1]	MIC (Staphylococcus aureus [2]) [µg/mL]	MIC (Staphylococcus aureus [3]) [µg/mL]	MIC (Staphylococcus aureus [4]) [µg/mL]	MIC [5] [µg/mL]	fold change (FC) [6]	fractional inhibitory concentration index (FICI) [7]	MIC [8] [µg/mL]	fold change (FC) [9]	fractional inhibitory concentration index (FICI) [10]	viability at 24 h, 50 ug/mL [13] [%]	Flu intensity [14]	other results
c1ccc(C2=NC(c3ccccc3)Nc3ccccc32)cc1 (stereo not drawn)	3960	250 (≈ 879 µM)	125 (≈ 440 µM)	250 (≈ 879 µM)	3.1	16	0.078	3.1	16	0.31	71	96.1	Activity [11]: > 3 log10CFU/ml; inhibition [12]: Active
CN1c2ccc(Cl)cc2C(c2ccccc2)=NC1c1ccc(Br)cc1 (stereo not drawn)	23600	500 (≈ 1210 µM)	125 (≈ 304 µM)	250 (≈ 607 µM)	6.2	8	0.141	3.1	16	0.187	86.6	70.6	Activity [15]: > 3 log10CFU/ml; inhibition [16]: Active; inhibition [17]: Active; Activity (Staphylococcus aureus [18]): Active; fold change (FC) (Staphylococcus aureus [19]): 8; fold change (FC) (Staphylococcus aureus [20]): 9; Activity [21]: 4.47 log10CFU/ml; fold change (FC) [22]: 4; inhibition [23]: Active; inhibition [24]: Active; FC [25]: 5; FC [26]: 3
CN1c2ccc(Cl)cc2C(c2ccccc2)=NC1c1ccc([N+](=O)[O-])cc1 (stereo not drawn)	573	250 (≈ 662 µM)	125 (≈ 331 µM)	250 (≈ 662 µM)	6.2	8	0.141	6.2	8	0.25	83.1	100	Activity [27]: > 3 log10CFU/ml
CN1c2ccc(Cl)cc2C(c2ccccc2)=NC1c1ccccc1 (stereo not drawn)	1560	500 (≈ 1500 µM)	125 (≈ 376 µM)	250 (≈ 751 µM)	6.2	8	0.141	12.5	4	0.266	5	143	Activity [28]: > 3 log10CFU/ml; inhibition [29]: Active
COc1ccc(CCN(C)CCCC(C#N)(c2ccc(OC)c(OC)c2)C(C)C)cc1OC (stereo not drawn) [VERAPAMIL]	–	400 (≈ 880 µM)	–	–	12.5	4	–	6.2	8	–	–	–	Flu intensity [30]: 1590; Flu intensity [31]: 189
COc1ccc(C2N=C(c3ccccc3)c3ccccc3N2)cc1OC (stereo not drawn)	–	500 (≈ 1450 µM)	125 (≈ 363 µM)	250 (≈ 726 µM)	3.1	16	0.078	6.2	8	0.141	83.7	86	Activity [27]: > 3 log10CFU/ml; inhibition [32]: Active; inhibition [33]: Active
C=CCOc1ccc(C2N=C(c3ccccc3)c3cc(Cl)ccc3N2C)cc1 (stereo not drawn)	15400	500 (≈ 1290 µM)	125 (≈ 321 µM)	31.2 (≈ 80.2 µM)	6.2	8	0.141	12.5	4	0.281	94.8	173	Activity [15]: > 3 log10CFU/ml; inhibition [34]: Active; inhibition [35]: Active; Activity (Staphylococcus aureus [18]): Active; fold change (FC) (Staphylococcus aureus [19]): 8; fold change (FC) (Staphylococcus aureus [20]): 9; Activity [21]: 4.25 log10CFU/ml; fold change (FC) [22]: 4; inhibition [23]: Active; inhibition [24]: Active; FC [25]: 5; FC [26]: 3
O=[N+]([O-])c1ccc(C2N=C(c3ccccc3)c3ccccc3N2)cc1 (stereo not drawn)	–	> 1000	125 (≈ 380 µM)	250 (≈ 759 µM)	–	–	–	–	–	–	–	–	–
